Data published in the supplement of paper PMC10307832.

How the values were obtained:
Experiment in all cases: relative viability (nuclei count vs DMSO), 5 days (fraction); higher = more cells survive
[1] = system: HCC-15
Summary of the method: (§1)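 Values are medians from duplicate plates. Each reflects relative viability, defined as the nuclei count of treated wells over that of vehicle wells. Lung cancer cell lines in 1536-well plates were pin-tool dosed one day after seeding with one drug alone or with a fixed anchor-drug dose plus five library-drug doses (not always all listed) in √10 steps, then fixed, stained and imaged at 4× after 5 days.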

[2] = system: HARA
Summary of the method: as §1

[3] = system: NCI-H1755
Summary of the method: as §1

[4] = system: COR-L23
Summary of the method: as §1

[5] = system: NCI-H1793
Summary of the method: as §1

[6] = system: NCI-H2009
Summary of the method: as §1

[7] = system: NCI-H1993
Summary of the method: as §1

[8] = system: NCI-H2347
Summary of the method: as §1

[9] = system: NCI-H1734
Summary of the method: as §1

[10] = system: NCI-H522
Summary of the method: as §1

[11] = system: NCI-H358
Summary of the method: as §1

[12] = system: NCI-H2228
Summary of the method: as §1

[13] = system: HOP-62
Summary of the method: as §1

[14] = system: NCI-H1792
Summary of the method: as §1

[15] = system: NCI-H838
Summary of the method: as §1

[16] = system: SK-MES-1
Summary of the method: as §1

[17] = system: UMC-11
Summary of the method: as §1

[18] = system: NCI-H1395
Summary of the method: as §1

[19] = system: NCI-H1355
Summary of the method: as §1

[20] = system: NCI-H2170
Summary of the method: as §1

[21] = system: NCI-H647
Summary of the method: as §1

[22] = system: COR-L 105
Summary of the method: as §1

`COc1nc(C)cnc1NS(=O)(=O)c1cccnc1-c1ccc(-c2nnco2)cc1` [Zibotentan] + CC(=O)Nc1cccc(-n2c(=O)n(C3CC3)c(=O)c3c(Nc4ccc(I)cc4F)n(C)c(=O)c(C)c32)c1 [Trametinib] (partner 0.02 µM) gave a relative viability ([1]; first compound 0.08 µM) of 0.397, a relative viability ([1]; first compound 0.253 µM) of 0.412 and a relative viability ([1]; first compound 0.8 µM) of 0.414. It also gave a relative viability ([1]; first compound 2.53 µM) of 0.319, a relative viability ([2]; first compound 0.08 µM) of 0.996 and a relative viability ([2]; first compound 0.8 µM) of 0.414. The relative viability ([2]; first compound 2.53 µM) was 0.764, the relative viability ([3]; first compound 0.08 µM) was 0.737 and the relative viability ([3]; first compound 0.253 µM) was 0.745. It also gave a relative viability ([3]; first compound 0.8 µM) of 0.797, a relative viability ([3]; first compound 2.53 µM) of 0.792 and a relative viability ([4]; first compound 0.08 µM) of 0.573. The relative viability ([4]; first compound 0.253 µM) was 0.531, the relative viability ([4]; first compound 0.8 µM) was 0.831 and the relative viability ([4]; first compound 2.53 µM) was 0.555. It also gave a relative viability ([5]; first compound 0.08 µM) of 0.42, a relative viability ([5]; first compound 0.253 µM) of 0.477 and a relative viability ([5]; first compound 0.8 µM) of 0.424. For the same compound, the relative viability ([5]; first compound 2.53 µM) was 0.47, the relative viability ([6]; first compound 0.08 µM) was 0.273 and the relative viability ([6]; first compound 0.253 µM) was 0.258. It also gave a relative viability ([6]; first compound 0.8 µM) of 0.266, a relative viability ([6]; first compound 2.53 µM) of 0.278 and a relative viability ([7]; first compound 0.08 µM) of 0.591. The relative viability ([7]; first compound 0.253 µM) was 0.51, the relative viability ([7]; first compound 0.8 µM) was 0.459 and the relative viability ([7]; first compound 2.53 µM) was 0.545. The relative viability ([8]; first compound 0.08 µM) was 0.252, the relative viability ([8]; first compound 0.253 µM) was 0.272 and the relative viability ([8]; first compound 0.8 µM) was 0.339. It also gave a relative viability ([8]; first compound 2.53 µM) of 0.287, a relative viability ([9]; first compound 0.08 µM) of 0.721 and a relative viability ([9]; first compound 0.253 µM) of 0.705. It also gave a relative viability ([9]; first compound 0.8 µM) of 0.647, a relative viability ([9]; first compound 2.53 µM) of 0.733 and a relative viability ([10]; first compound 0.08 µM) of 0.732. The relative viability ([10]; first compound 0.253 µM) was 0.667, the relative viability ([10]; first compound 0.8 µM) was 0.727 and the relative viability ([10]; first compound 2.53 µM) was 0.856. It also gave a relative viability ([11]; first compound 0.08 µM) of 0.15, a relative viability ([11]; first compound 0.253 µM) of 0.109 and a relative viability ([11]; first compound 2.53 µM) of 0.145. The relative viability ([12]; first compound 0.08 µM) was 0.398, the relative viability ([12]; first compound 0.253 µM) was 0.62 and the relative viability ([12]; first compound 0.8 µM) was 0.572. For the same compound, the relative viability ([12]; first compound 2.53 µM) was 0.49, the relative viability ([13]; first compound 0.08 µM) was 0.429 and the relative viability ([13]; first compound 0.253 µM) was 0.367. For the same compound, the relative viability ([13]; first compound 0.8 µM) was 0.421, the relative viability ([13]; first compound 2.53 µM) was 0.39 and the relative viability ([14]; first compound 0.08 µM) was 0.546. It also gave a relative viability ([14]; first compound 0.253 µM) of 0.479, a relative viability ([14]; first compound 0.8 µM) of 0.389 and a relative viability ([14]; first compound 2.53 µM) of 0.537. It also gave a relative viability ([15]; first compound 0.08 µM) of 0.525, a relative viability ([15]; first compound 0.253 µM) of 0.454 and a relative viability ([15]; first compound 0.8 µM) of 0.487. It also gave a relative viability ([15]; first compound 2.53 µM) of 0.508, a relative viability ([16]; first compound 0.08 µM) of 0.581 and a relative viability ([16]; first compound 0.253 µM) of 0.533. The relative viability ([16]; first compound 0.8 µM) was 0.563, the relative viability ([16]; first compound 2.53 µM) was 0.556 and the relative viability ([17]; first compound 0.08 µM) was 0.617. For the same compound, the relative viability ([17]; first compound 0.253 µM) was 0.665, the relative viability ([17]; first compound 0.8 µM) was 0.741 and the relative viability ([17]; first compound 2.53 µM) was 0.779. For the same compound, the relative viability ([18]; first compound 0.08 µM) was 1.05, the relative viability ([18]; first compound 0.253 µM) was 0.947 and the relative viability ([18]; first compound 0.8 µM) was 1.07. For the same compound, the relative viability ([18]; first compound 2.53 µM) was 1.07, the relative viability ([19]; first compound 0.08 µM) was 0.399 and the relative viability ([19]; first compound 0.253 µM) was 0.437. For the same compound, the relative viability ([19]; first compound 0.8 µM) was 0.402, the relative viability ([19]; first compound 2.53 µM) was 0.438 and the relative viability ([20]; first compound 0.08 µM) was 0.966. The relative viability ([20]; first compound 0.253 µM) was 0.897, the relative viability ([20]; first compound 0.8 µM) was 0.903 and the relative viability ([20]; first compound 2.53 µM) was 0.908. For the same compound, the relative viability ([21]; first compound 0.08 µM) was 0.452, the relative viability ([21]; first compound 0.253 µM) was 0.42 and the relative viability ([21]; first compound 0.8 µM) was 0.431. The relative viability ([21]; first compound 2.53 µM) was 0.532, the relative viability ([22]; first compound 0.08 µM) was 0.403 and the relative viability ([22]; first compound 0.253 µM) was 0.411. For the same compound, the relative viability ([22]; first compound 0.8 µM) was 0.482 and the relative viability ([22]; first compound 2.53 µM) was 0.475.
